Assay results reported in US6803371B2, “Purine inhibitors of protein kinases, G proteins and polymerases” (The Regents of the University of California, priority 1997, dated 2004).

biological target: erk1 (Homo sapiens, UniProt P27361); test: erk1 kinase inhibition; assay type: biochemical; conditions: read-out: IC50 (additional kinases) erk1
Sequence (P27361 whole entry, species assumed): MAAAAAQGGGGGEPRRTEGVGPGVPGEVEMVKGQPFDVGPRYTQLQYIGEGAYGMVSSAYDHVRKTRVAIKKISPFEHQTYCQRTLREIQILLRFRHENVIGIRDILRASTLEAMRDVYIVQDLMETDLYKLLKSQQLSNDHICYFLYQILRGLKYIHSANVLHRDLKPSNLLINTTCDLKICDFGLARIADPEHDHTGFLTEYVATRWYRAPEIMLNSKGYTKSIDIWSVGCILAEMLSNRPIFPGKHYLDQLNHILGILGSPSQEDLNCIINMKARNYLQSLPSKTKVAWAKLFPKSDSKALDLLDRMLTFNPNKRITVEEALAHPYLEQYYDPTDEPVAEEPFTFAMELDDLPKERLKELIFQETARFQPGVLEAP

Row | IC50 | SMILES
1 | > 10 µM | CC[C@H](CO)Nc1nc(NCc2ccc(OC)cc2)c2ncn(C(C)C)c2n1 [NG-33]
2 | > 10 µM | COc1ccc(CNc2nc(N[C@@H](CO)CC(C)C)nc3c2ncn3C(C)C)cc1 [NG-36]
3 | 50 µM | COc1ccc(CNc2nc(N(CC(C)O)CC(C)O)nc3c2ncn3C(C)C)cc1 (stereo not shown) [NG-16]

biological target: cdc2/cyclinB; test: cdc2/cyclinB kinase inhibition; assay type: biochemical; conditions: not given

Row | SMILES | IC50
4 | COc1ccc(CNc2nc(N(CCO)Cc3ccccc3)nc3c2ncn3C(C)C)cc1 [NG-49] | 2800 nM
5 | COc1ccccc1Nc1nc(NCCO)nc2c1ncn2C(C)C [NG-46] | 9000 nM
6 | COc1ccc(CNc2nc(NCC(O)c3ccccc3)nc3c2ncn3C(C)C)cc1 (stereo not shown) [NG-50] | 2800 nM
7 | CC(C)[C@H](CO)Nc1nc(Nc2ccc(Cl)c(N)c2)c2ncn(C(C)C)c2n1 [NG-98] | 30 nM
8 | CC(C)n1cnc2c(Nc3ccc(Cl)cc3Cl)nc(NCCO)nc21 [NG-54] | 2700 nM
9 | CC(C)n1cnc2c(Nc3cccc(C(F)(F)F)c3)nc(NCCO)nc21 [NG-51] | 420 nM
10 | CC(C)[C@H](CO)Nc1nc(Nc2cc(N)cc(Cl)c2)c2ncn(C(C)C)c2n1 [NG-97] | 30 nM
11 | CC(C)n1cnc2c(Nc3ccc4ccccc4c3)nc(NCCO)nc21 [NG-47] | 430 nM
12 | CC(C)C(CO)Nc1nc(Nc2cc(Cl)cc(Cl)c2)c2ncn(C(C)C)c2n1 (stereo not shown) [NG-57] | 400 nM
13 | COc1ccc(CNc2nc(N[C@@H](CO)CC(C)C)nc3c2ncn3C(C)C)cc1 [NG-36] | 100 nM
14 | COc1ccc(CNc2nc(N(CC(C)O)CC(C)O)nc3c2ncn3C(C)C)cc1 (stereo not shown) [NG-16] | 240 nM
15 | CC(C)n1cnc2c(Nc3cccc(Cl)c3)nc(NCCO)nc21 [NG-52] | 220 nM

Continued, values first:

Row | IC50 | SMILES
16 | 4300 nM | CC(C)n1cnc2c(Nc3ccccc3)nc(NCCO)nc21 [NG-42]
17 | 4300 nM | CC(C)n1cnc2c(Nc3ccccc3Cl)nc(NCCO)nc21 [NG-43]
18 | ~100 nM | CC(C)[C@H](CO)Nc1nc(Nc2ccc(O)c(C(=O)O)c2)c2ncn(C(C)C)c2n1 [NG-94]
19 | 10000 nM | CC(C)n1cnc2c(Nc3ccccc3C(F)(F)F)nc(NCCO)nc21 [NG-53]
20 | 2300 nM | CC(C)n1cnc2c(Nc3cccc(Cl)c3)nc(N[C@H](CO)C(C)(C)C)nc21 [NG-61]
21 | 500 nM | CCC(C)[C@@H](CO)Nc1nc(Nc2cccc(Cl)c2)c2ncn(C(C)C)c2n1 (stereo partly shown) [NG-62]
22 | 400 nM | CC(C)n1cnc2c(Nc3cccc(F)c3)nc(NCCO)nc21 [NG-65]
23 | 270 nM | CC(C)n1cnc2c(Nc3cccc(Br)c3)nc(NCCO)nc21 [NG-45]
24 | ~30 nM | CC(C)[C@H](CO)Nc1nc(Nc2ccc(Cl)c(C(=O)O)c2)c2ncn(C(C)C)c2n1 [NG-96]
25 | 800 nM | CC(C)n1cnc2c(Nc3cccc(Cl)c3)nc(N[C@H](CO)c3ccccc3)nc21 [NG-59]
